Results from ChEMBL document CHEMBL5291721, “A preclinical secondary pharmacology resource illuminates target-adverse drug reaction associations of marketed drugs” (Nat Commun, 2023).

Columns and labels:
[1] = molecular target: T1, Adenosine receptor A3 (Homo sapiens, UniProt P0DMS8)
T1 sequence (P0DMS8 whole entry): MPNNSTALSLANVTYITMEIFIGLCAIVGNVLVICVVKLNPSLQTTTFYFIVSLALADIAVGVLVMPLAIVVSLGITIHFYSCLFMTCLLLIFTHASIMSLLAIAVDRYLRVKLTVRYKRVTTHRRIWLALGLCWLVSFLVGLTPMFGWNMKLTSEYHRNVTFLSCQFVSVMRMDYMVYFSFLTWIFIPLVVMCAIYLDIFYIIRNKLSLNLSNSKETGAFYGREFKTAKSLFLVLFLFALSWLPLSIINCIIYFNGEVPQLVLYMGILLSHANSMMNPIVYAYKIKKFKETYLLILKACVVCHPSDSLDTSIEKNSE

[2] = molecular target: T2, Amine oxidase [flavin-containing] A (Homo sapiens, UniProt P21397); type: functional
T2 sequence (P21397 whole entry): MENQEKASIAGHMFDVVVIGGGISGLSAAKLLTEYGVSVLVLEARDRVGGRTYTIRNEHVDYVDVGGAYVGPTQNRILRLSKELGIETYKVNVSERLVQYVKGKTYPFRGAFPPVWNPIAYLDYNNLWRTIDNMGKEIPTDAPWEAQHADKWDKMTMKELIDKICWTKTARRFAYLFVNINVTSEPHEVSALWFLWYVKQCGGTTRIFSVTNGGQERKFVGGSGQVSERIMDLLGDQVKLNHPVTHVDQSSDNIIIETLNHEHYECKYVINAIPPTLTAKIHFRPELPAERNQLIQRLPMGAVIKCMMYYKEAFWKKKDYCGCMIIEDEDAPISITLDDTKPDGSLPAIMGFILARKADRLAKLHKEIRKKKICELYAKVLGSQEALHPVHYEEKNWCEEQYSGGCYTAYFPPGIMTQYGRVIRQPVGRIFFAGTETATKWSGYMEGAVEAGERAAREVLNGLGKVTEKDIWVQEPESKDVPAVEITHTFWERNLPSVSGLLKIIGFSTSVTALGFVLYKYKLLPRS

[3] = molecular target: 5-hydroxytryptamine receptor 2B (Homo sapiens, UniProt P41595); type: functional, cell-based
Sequence of 5-hydroxytryptamine receptor 2B (P41595 whole entry): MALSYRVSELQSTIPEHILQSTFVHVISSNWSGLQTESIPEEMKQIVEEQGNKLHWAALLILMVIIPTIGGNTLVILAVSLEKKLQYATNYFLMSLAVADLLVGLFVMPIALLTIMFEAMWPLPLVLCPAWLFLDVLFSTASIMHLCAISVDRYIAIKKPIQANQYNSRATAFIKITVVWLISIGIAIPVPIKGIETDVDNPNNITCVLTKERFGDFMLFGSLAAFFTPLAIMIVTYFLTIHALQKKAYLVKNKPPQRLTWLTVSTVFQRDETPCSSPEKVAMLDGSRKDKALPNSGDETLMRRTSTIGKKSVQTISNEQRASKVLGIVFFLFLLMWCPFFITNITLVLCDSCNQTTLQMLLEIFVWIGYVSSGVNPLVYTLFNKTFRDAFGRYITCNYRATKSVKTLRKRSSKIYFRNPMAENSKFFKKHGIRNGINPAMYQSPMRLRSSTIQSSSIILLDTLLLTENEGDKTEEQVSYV

[4] = molecular target: Sodium-dependent dopamine transporter (Homo sapiens, UniProt Q01959)
Sequence of Sodium-dependent dopamine transporter (Q01959 whole entry): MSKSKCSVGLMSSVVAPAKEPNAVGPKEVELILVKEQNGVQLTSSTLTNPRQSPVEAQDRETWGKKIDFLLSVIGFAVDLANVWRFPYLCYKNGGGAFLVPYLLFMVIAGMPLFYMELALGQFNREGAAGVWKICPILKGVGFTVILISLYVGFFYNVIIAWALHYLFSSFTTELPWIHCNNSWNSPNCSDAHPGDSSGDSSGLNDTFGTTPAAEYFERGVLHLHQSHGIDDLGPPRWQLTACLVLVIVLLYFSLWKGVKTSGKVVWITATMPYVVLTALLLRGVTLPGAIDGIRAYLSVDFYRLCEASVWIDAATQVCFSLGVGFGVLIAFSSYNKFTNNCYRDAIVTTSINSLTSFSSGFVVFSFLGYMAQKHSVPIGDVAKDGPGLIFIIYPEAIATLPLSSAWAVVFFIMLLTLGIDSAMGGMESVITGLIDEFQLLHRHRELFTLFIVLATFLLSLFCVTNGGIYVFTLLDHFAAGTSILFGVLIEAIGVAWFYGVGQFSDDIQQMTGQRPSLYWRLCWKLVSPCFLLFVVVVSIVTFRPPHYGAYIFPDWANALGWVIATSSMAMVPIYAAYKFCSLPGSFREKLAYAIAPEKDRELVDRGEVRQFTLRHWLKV

[5] = molecular target: T3, Muscarinic acetylcholine receptor M2 (Homo sapiens, UniProt P08172)
T3 sequence (P08172 whole entry): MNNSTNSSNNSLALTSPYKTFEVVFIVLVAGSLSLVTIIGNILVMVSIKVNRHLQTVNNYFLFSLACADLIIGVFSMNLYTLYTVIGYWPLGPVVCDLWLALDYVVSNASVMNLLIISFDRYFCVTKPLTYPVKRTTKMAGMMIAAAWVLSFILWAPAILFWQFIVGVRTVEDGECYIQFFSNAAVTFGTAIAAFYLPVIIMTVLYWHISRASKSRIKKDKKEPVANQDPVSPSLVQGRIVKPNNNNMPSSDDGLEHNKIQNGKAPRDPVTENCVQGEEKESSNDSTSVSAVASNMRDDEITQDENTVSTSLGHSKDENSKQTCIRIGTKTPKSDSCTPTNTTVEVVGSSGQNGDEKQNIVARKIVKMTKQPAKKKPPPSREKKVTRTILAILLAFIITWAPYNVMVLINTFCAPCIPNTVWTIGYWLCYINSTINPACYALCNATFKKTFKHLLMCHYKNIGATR

[6] = molecular target: T4, Sodium-dependent serotonin transporter (Homo sapiens, UniProt P31645)
T4 sequence (P31645 whole entry): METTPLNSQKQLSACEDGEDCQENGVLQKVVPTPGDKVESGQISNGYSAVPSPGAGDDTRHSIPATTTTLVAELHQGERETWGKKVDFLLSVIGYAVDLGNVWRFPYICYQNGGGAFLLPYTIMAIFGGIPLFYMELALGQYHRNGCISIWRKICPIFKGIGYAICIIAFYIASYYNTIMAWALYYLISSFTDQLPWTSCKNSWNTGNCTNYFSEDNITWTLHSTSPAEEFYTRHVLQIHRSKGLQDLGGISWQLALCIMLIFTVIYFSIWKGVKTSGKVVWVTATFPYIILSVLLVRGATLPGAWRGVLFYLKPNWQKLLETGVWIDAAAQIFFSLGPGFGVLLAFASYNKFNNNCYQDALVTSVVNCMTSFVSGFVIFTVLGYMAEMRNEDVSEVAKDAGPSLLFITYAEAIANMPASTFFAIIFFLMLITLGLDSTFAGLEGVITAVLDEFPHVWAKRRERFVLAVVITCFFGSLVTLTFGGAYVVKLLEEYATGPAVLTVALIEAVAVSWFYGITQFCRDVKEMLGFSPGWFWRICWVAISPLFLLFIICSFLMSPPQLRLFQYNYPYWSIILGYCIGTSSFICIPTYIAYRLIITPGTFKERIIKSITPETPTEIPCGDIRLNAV

[7] = molecular target: T5, Estrogen receptor (Homo sapiens, UniProt P03372)
T5 sequence (P03372 whole entry): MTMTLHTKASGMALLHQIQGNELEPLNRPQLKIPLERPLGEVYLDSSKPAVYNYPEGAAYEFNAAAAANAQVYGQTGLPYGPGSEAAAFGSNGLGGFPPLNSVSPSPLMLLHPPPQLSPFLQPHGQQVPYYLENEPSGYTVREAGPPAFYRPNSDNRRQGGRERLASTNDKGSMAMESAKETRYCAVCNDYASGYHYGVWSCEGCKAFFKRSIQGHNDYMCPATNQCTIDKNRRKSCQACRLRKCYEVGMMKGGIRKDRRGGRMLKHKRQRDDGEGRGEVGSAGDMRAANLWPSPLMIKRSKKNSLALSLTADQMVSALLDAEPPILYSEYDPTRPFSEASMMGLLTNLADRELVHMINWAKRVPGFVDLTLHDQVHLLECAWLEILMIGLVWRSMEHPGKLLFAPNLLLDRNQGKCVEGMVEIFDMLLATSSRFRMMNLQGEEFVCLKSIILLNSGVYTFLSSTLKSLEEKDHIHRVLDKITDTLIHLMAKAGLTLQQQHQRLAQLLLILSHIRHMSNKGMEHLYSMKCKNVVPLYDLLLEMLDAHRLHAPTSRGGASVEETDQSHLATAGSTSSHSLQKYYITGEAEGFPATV

[8] = molecular target: T6, B2 bradykinin receptor (Homo sapiens, UniProt P30411)
T6 sequence (P30411 whole entry): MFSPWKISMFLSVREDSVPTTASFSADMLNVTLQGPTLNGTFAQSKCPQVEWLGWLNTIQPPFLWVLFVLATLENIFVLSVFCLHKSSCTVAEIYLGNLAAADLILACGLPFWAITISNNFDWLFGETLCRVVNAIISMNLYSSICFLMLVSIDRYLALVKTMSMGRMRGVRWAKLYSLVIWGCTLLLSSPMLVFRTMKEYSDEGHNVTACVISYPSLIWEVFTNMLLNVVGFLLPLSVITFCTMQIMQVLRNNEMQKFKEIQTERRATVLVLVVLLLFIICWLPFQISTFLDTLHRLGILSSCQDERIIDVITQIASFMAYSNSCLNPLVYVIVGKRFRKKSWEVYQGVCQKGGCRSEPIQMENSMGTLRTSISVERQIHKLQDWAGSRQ

[9] = molecular target: Mu-type opioid receptor (Homo sapiens, UniProt P35372)
Sequence of Mu-type opioid receptor (P35372 whole entry): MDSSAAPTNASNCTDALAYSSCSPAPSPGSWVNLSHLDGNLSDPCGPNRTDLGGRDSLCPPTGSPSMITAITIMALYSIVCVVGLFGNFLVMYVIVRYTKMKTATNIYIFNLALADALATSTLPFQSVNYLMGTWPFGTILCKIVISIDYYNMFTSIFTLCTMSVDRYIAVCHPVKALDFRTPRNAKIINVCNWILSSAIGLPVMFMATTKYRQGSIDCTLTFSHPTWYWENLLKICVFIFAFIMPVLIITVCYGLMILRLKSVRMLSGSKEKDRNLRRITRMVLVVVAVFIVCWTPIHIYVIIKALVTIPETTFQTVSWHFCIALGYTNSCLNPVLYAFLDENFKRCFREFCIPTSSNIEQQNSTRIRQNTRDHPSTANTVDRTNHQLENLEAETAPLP

[10] = molecular target: Melanocortin receptor 4 (Homo sapiens, UniProt P32245)
Sequence of Melanocortin receptor 4 (P32245 whole entry): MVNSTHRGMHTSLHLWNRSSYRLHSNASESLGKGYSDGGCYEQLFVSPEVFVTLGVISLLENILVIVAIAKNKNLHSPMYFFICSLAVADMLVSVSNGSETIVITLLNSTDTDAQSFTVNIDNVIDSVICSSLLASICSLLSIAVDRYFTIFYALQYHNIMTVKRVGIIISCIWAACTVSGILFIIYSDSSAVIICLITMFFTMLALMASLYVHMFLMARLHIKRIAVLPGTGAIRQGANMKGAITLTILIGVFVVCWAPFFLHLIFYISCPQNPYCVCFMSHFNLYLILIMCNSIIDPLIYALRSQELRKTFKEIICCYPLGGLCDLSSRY

[11] = molecular target: Histamine H3 receptor (Homo sapiens, UniProt Q9Y5N1)
Sequence of Histamine H3 receptor (Q9Y5N1 whole entry): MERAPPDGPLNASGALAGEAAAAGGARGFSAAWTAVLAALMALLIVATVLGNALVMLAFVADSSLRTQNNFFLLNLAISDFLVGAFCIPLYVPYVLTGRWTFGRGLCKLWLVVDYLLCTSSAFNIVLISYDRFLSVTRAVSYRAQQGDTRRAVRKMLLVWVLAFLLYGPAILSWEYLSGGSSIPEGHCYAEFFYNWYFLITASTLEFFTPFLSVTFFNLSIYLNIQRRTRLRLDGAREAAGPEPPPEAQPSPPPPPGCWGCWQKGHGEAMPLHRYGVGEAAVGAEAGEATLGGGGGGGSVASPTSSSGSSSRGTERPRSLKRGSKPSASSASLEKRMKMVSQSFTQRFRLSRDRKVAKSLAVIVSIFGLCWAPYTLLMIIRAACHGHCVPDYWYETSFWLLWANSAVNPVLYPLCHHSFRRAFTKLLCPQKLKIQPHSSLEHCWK

[12] = molecular target: T4, Sodium-dependent serotonin transporter; remark: listed apart in the source
Note: assay procedure not described here.

| Structure (SMILES) | AC50 [1] [µM] | AC50 [2] [µM] | AC50 [3] [µM] | AC50 [4] [µM] | AC50 [5] [µM] | AC50 [6] [µM] | AC50 [7] [µM] | AC50 [8] [µM] | AC50 [9] [µM] | AC50 [10] [µM] | AC50 [11] [µM] | AC50 [12] [µM] |
| --- | --- | --- | --- | --- | --- | --- | --- | --- | --- | --- | --- | --- |
| O=C1c2ccccc2C(=O)C1C(=O)C(c1ccccc1)c1ccccc1 [DIPHENADIONE] | 0.716 | > 30 | > 30 | > 30 | > 30 | > 30 | – | – | – | – | – | – |
| CCO/N=C(\C(=O)N[C@@H]1C(=O)N2C(C(=O)[O-])=C(Sc3nc(-c4cc[n+](C)cc4)cs3)CS[C@H]12)c1nsc(N)n1 [CEFTAROLINE] | > 30 | > 30 | > 30 | > 30 | > 30 | > 30 | > 30 | – | – | – | – | – |
| CCc1ccc(CCOc2ccc(CC3SC(=O)NC3=O)cc2)nc1 (configuration not stated) [PIOGLITAZONE] | > 30 | > 30 | > 30 | > 30 | > 30 | – | > 30 | > 30 | > 10 | > 30 | – | – |
| CC(C)C(=O)Nc1ccc([N+](=O)[O-])c(C(F)(F)F)c1 [FLUTAMIDE] | 20.3 | > 30 | > 30 | > 30 | > 30 | – | > 30 | > 30 | > 30 | > 30 | > 30 | – |
| CCC(=O)c1c(O)cc(O)cc1O [FLOPROPIONE] | > 30 | > 30 | > 30 | > 30 | > 30 | > 30 | > 30 | – | – | – | – | – |
| CC(=O)OC[C@H]1O[C@@H](n2ccc(=O)[nH]c2=O)[C@H](OC(C)=O)[C@@H]1OC(C)=O [URIDINE TRIACETATE] | > 30 | > 30 | > 30 | > 30 | > 30 | > 30 | > 30 | – | – | – | – | – |
| CC(N/C(=N\C#N)Nc1ccncc1)C(C)(C)C (configuration not stated) [PINACIDIL ANHYDROUS] | > 30 | > 30 | > 30 | > 30 | > 30 | > 30 | – | – | – | – | – | – |
| Cc1cc2c(cc1CC(=O)c1sccc1S(=O)(=O)Nc1onc(C)c1Cl)OCO2 [SITAXENTAN] | – | > 30 | > 30 | > 30 | > 30 | > 30 | > 30 | – | – | – | – | – |
| O=C1[C@H](CC[C@H](O)c2ccc(F)cc2)[C@@H](c2ccc(O)cc2)N1c1ccc(F)cc1 [EZETIMIBE] | 6.34 | > 30 | > 30 | 19.5 | > 30 | > 30 | > 30 | – | – | – | – | – |
| Cc1ccc(O)c2ncccc12 [TILIQUINOL] | > 30 | > 30 | > 30 | > 30 | > 30 | > 30 | > 30 | – | – | – | – | – |
| O=C1c2c(O)c(=O)ccn2N([C@@H]2c3ccccc3SCc3c2ccc(F)c3F)[C@@H]2COCCN12 [BALOXAVIR] | > 30 | > 30 | > 30 | > 30 | > 30 | > 30 | > 30 | – | – | – | – | – |
| CN1CCCC(CN2c3ccccc3Sc3ccccc32)C1 (configuration not stated) [MEPAZINE] | > 30 | > 30 | > 30 | 27.7 | 0.347 | – | > 30 | – | – | – | – | – |
| OC[C@@H](O)[C@@H](O)[C@H](O)[C@H](O)CO [MANNITOL] | > 30 | > 30 | > 30 | > 30 | > 30 | – | > 30 | – | – | – | – | – |
| NC(=O)c1cnccn1 [PYRAZINAMIDE] | > 30 | > 30 | > 30 | > 30 | > 30 | – | > 30 | > 30 | > 30 | 10.2 | > 30 | – |
| C#C[C@]1(O)CC[C@H]2[C@@H]3CCC4=CC(=O)CC[C@@H]4[C@H]3CC[C@@]21CC [LEVONORGESTREL] | > 30 | > 30 | > 30 | > 30 | > 30 | – | 8.65 | – | – | – | – | – |
| CS(=O)(=O)c1ccc([C@@H](O)[C@@H](CO)NC(=O)C(Cl)Cl)cc1 [THIAMPHENICOL] | > 30 | > 30 | > 30 | > 30 | > 30 | – | > 30 | > 30 | – | – | > 30 | – |
| CCOC(=O)c1ccc(O)cc1 [ETHYLPARABEN] | > 30 | > 30 | > 30 | > 30 | > 30 | > 30 | > 30 | – | – | – | – | – |
| C[N+](C)(C)CCCCCCCCCC[N+](C)(C)C [DECAMETHONIUM] | > 30 | > 30 | > 30 | > 30 | > 30 | > 30 | > 30 | – | – | – | – | – |
| CC(C)OC(=O)[C@H](C)N[P@](=O)(OC[C@H]1O[C@@H](n2ccc(=O)[nH]c2=O)[C@](C)(F)[C@@H]1O)Oc1ccccc1 [SOFOSBUVIR] | > 30 | > 30 | > 30 | > 30 | > 30 | > 30 | > 30 | – | – | – | – | – |
| COc1cc(Nc2c(C#N)cnc3cc(OCCCN4CCN(C)CC4)c(OC)cc23)c(Cl)cc1Cl [BOSUTINIB] | – | > 30 | > 30 | 7.55 | 4.94 | 3.21 | > 30 | > 30 | – | 17.7 | – | 11 |
| CC1(C)O[C@@H]2C[C@H]3[C@@H]4C[C@H](F)C5=CC(=O)CC[C@]5(C)[C@H]4[C@@H](O)C[C@]3(C)[C@]2(C(=O)CO)O1 [FLURANDRENOLIDE] | > 30 | > 30 | > 30 | > 30 | > 30 | – | > 30 | – | – | – | – | – |
| CC(O)CO (configuration not stated) [PROPYLENE GLYCOL] | > 30 | > 30 | > 30 | > 30 | > 30 | – | > 30 | – | – | – | – | – |
